Article PMC8918029 (Journal of medicinal chemistry, 2021)
Entries after “also recorded” stand apart in the source; their conditions may differ.

Experiments:
purified γ-secretase = purified γ-secretase (Homo sapiens, UniProt P49768); assay: Inhibition constant; assay type: biochemical; conditions: double-reciprocal plots, varying C100Flag
γ-secretase = γ-secretase (Homo sapiens, UniProt P49768); assay: Cross-competition kinetic experiments between two inhibitors; assay type: biochemical; conditions: [38] = 0, 0.15, 0.30, 0.60 nM; C100 0.50 μM; parallel lines indicate cross-competition

CC[C@@H](C)[C@@H](NC(=O)[C@H](NC(=O)[C@H](NC(=O)C(C)(C)NC(=O)CNC(=O)[C@H](NC(=O)OC(C)(C)C)C(C)C)C(C)C)C(C)C)C(=O)NC(C)(C)C(=O)N[C@@H](C(=O)N[C@@H](C(=O)NC(C)(C)C(=O)NCCCCCCCCCCC(=O)N[C@H](C(=O)N[C@@H](Cc1ccccc1)[C@H](O)CN(Cc1ccccc1)C(=O)N[C@@H](CC(C)C)C(=O)N[C@H](C(N)=O)C(C)C)C(C)C)C(C)C)[C@H](C)O [Compound 38, Boc-^DVal-Gly-Aib-^DVal-^DVal-^DIle-Aib-^DThr- ^DVal-Aib-NH(CH2)10CO-Val-Phe-ψ-Phe-Leu-Val-NH2]
Inhibition profile (mode of inhibition) (purified γ-secretase): noncompetitive; also recorded: non-competitive inhibition | Cross-competition with TSA 1 and HPI 2 for binding (γ-secretase): could compete with both TSA 1 and HPI 2; also recorded: competes with both TSA 1 and HPI 2
